Source: patent publication US11384054B2, “Crystalline form of ivacaftor and a process for preparing the same” (ScinoPharm Taiwan, Ltd., priority 2020, dated 2022)
In brackets after ≈: the same amount, converted by molar mass. Like-named read-outs stand apart in the source and are kept apart here.

Assay: Solubility test of ivacaftor in solvents and acetone/water mixtures at 25° C.
Assay type: physicochemical
Conditions: organic solvent or mixture
Protocol: “Solvent” refers to a liquid substance capable of dissolving ivacaftor at about 50° C. to about 60° C. The term “anti-solvent” refers to a liquid substance which is not capable of dissolving ivacaftor at about 20° C. to about 30° C. More particularly, solvents and anti-solvents suitable for crystalline forms of ivacaftor are selected by solubility test, such as the Tables 1A, […], and 1C below, taking into consideration of advantages provided by the convenience and efficiency of process operation, the use of more environmentally friendly solvents, mild crystallization conditions, and others.

solubility (N,N-dimethylformamide, N,N-dimethylformamide, 25° C., read-out: Solubility): 109 mg/mL (≈ 277 mM) | solubility (acetone, Acetone, 25° C., read-out: Solubility): 27.9 mg/mL (≈ 71 mM) | solubility (acetone/water, 0% water in acetone, 25° C., read-out: Solubility in acetone/water): 27.9 mg/mL (≈ 71 mM) | solubility (acetone/water, 2% water in acetone, 25° C., read-out: Solubility in acetone/water): 27.9 mg/mL (≈ 71 mM) | solubility (acetone/water, 5% water in acetone, 25° C., read-out: Solubility in acetone/water): 41.4 mg/mL (≈ 106 mM) | solubility (acetone/water, 8% water in acetone, 25° C. (Table 1C), read-out: Solubility in acetone/water): 41.2 mg/mL (≈ 105 mM) | solubility (acetone/water, 10% water in acetone, 25° C., read-out: Solubility in acetone/water): 47.1 mg/mL (≈ 120 mM) | solubility (acetone/water, 15% water in acetone, 25° C., read-out: Solubility in acetone/water): 43.3 mg/mL (≈ 110 mM) | solubility (acetone/water, 30% water in acetone, 25° C., read-out: Solubility in acetone/water): 11 mg/mL (≈ 28 mM) | solubility (acetone/water, 50% water in acetone, 25° C., read-out: Solubility in acetone/water): 0.34 mg/mL (≈ 0.866 mM) | solubility (acetonitrile, Acetonitrile, 25° C., read-out: Solubility): 1.78 mg/mL (≈ 4.54 mM) | solubility (cyclohexane, Cyclohexane, 25° C., read-out: Solubility): 0.34 mg/mL (≈ 0.866 mM) | solubility (dimethyl sulfoxide, Dimethyl sulfoxide, 25° C., read-out: Solubility): 375 mg/mL (≈ 955 mM) | solubility (ethanol, Ethanol, 25° C., read-out: Solubility): 4.5 mg/mL (≈ 11.5 mM) | solubility (ethyl acetate, Ethyl acetate, 25° C., read-out: Solubility): 16.9 mg/mL (≈ 43.1 mM) | solubility (isopropanol, Isopropanol, 25° C., read-out: Solubility): 2.87 mg/mL (≈ 7.31 mM) | solubility (methanol, Methanol, 25° C., read-out: Solubility): 1.98 mg/mL (≈ 5.04 mM) | solubility (methyl ethyl ketone, Methyl ethyl ketone, 25° C., read-out: Solubility): 44.7 mg/mL (≈ 114 mM) | solubility (n-heptane, n-Heptane, 25° C., read-out: Solubility): 0.62 mg/mL (≈ 1.58 mM) | solubility (tetrahydrofuran, Tetrahydrofuran, 25° C., read-out: Solubility): 26.6 mg/mL (≈ 67.6 mM)
SMILES: CC(C)(C)c1cc(C(C)(C)C)c(NC(=O)c2c[nH]c3ccccc3c2=O)cc1O [ivacaftor]
